PubChem BioAssay (NCI)
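Where inhibition never reached the appropriate level, the endpoint shown equals the highest concentration tested. Otherwise, values were interpolated linearly from a five-concentration, 48-hour dose response in 96-well plates. Here, GI50 denotes the concentration required for 50% inhibition of growth. Definition used: TGI = concentration required for complete inhibition of growth.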

system: SF-539 CNS; assay: NCI tumour cell line growth inhibition, 48 h

| Compound | GI50 [nM] | TGI [µM] |
| --- | --- | --- |
| COc1cc(/C=C2\CC3C4CC=C5CC(N6CCCC6)CC[C@]5(C)C4CC[C@]3(C)C2OC(C)=O)ccc1OCCN1CCCC1 (some centres not stated) | 1920 | 3.5 |
| COc1ccc(C(=O)C(C(=O)CCC(=O)Nc2cccc(C(F)(F)F)c2)c2ccccc2)cc1 (configuration not stated) |  | > 100 |
| O=C1c2ccccc2-c2cccc3ccc(Cc4ccccc4)c1c23 |  | > 100 |
| COC(=O)/C(=N\NC(=S)NN)C(C(=O)C(=O)Nc1ccccc1C(N)=O)c1nc2ccccc2[nH]c1=O (configuration not stated) |  | > 100 |
| CC/C=C\C/C=C\C1CC(=O)NCCCNCCCCN1 (configuration not stated) |  | > 100 |
| CC1CCCC(C(=O)/C(=C/c2cccc(Cl)c2)C(=O)C(=O)O)C1 (configuration not stated) |  | 64.9 |
| CC(=O)c1c(C)n([O-])c2cc(C)c(C)cc2[n+]1=O |  | > 100 |
| N#CC(C#N)=Cc1cccc(Oc2ccccc2)c1 |  | 35.1 |
| Cc1ncc([N+](=O)[O-])n1CCNC(=O)CCCCn1ccnc1[N+](=O)[O-] |  | > 100 |
| COc1ccc(/C=C/C(=O)c2sc(-n3nc(-c4ccccc4)cc3-c3ccccc3)nc2C)cc1OC |  | 81.1 |
| NC(CCSCC(F)F)C(=O)O (configuration not stated) |  | > 100 |
| COC(=O)NC/C=C\c1nc(CC/C=C\C(=O)OC2CC3CC(=O)O[C@@H](/C=C/CC(C)C)C[C@@H]4CCC(C)C(C[C@@H](OC)CC(C2)O3)O4)co1 (some centres not stated) | < 10 | 38.3 |
| CC1(C)OC(=O)C=C([O-])O1.CC1(C)OC(=O)C=C([O-])O1.O=c1c(O)c(-c2ccc([O-])cc2[O-])oc2cc(O)cc(O)c12.[Ti+4] |  | 60.2 |
| Nc1ccc(SC23CC4CC(CC(C4)C2)C3)cc1 |  | > 100 |
| CCOC(=O)[C@@H](C)C[C@H](Cc1ccccc1)NC(=O)c1csc([C@@H](C[C@H](C(C)C)N(C)C(=O)[C@@H](NC(=O)[C@H]2CCCCN2C)C(C)(C)C)OC(C)=O)n1 | < 1.67 | 0.00437 |

system: HOP-92 NSCLC; assay: NCI tumour cell line growth inhibition, 48 h

| Compound | TGI [µM] | GI50 [µM] |
| --- | --- | --- |
| CN(C)C(=S)/N=c1\ss/c(=N\S(=O)(=O)c2ccccc2)n1-c1ccccc1 | 67 |  |
| N#Cc1c(N)c(C(=O)O)nn(-c2cccc(C(F)(F)F)c2)c1=O | > 100 |  |
| CCOC(=O)Cc1nc(/C(C#N)=C/c2ccco2)[nH]c(=O)c1C#N | > 100 |  |
| CC1=Nc2c(ccc3c2C(=O)c2ccccc2C3=O)NC(c2ccncc2)C1 (configuration not stated) | > 100 | > 100 |
| C=C(COC(C)=O)CC(/C=C(\C)CCC=C(C)C)OC(C)=O (configuration not stated) | > 100 |  |
| CNC(=O)c1cn(C[C@H](F)CCc2ccc(NC(=O)Cc3cc(OC4CC(F)(F)C4)cc(C)n3)nn2)nn1 | > 100 | 23 |
| COC(=O)C(Cc1ccccc1)N/C=C\C(=O)c1ccc(Cl)cc1 (configuration not stated) | > 100 | 43.7 |
| CC1(C)CCc2cc3c(cc2O1)OCCC3=O | > 100 |  |
| Oc1c2c(c(O)c3ccccc13)=N[C@@H](c1ccccc1)[C@H](c1ccccc1)N=2 | > 100 |  |
| CNC(=O)c1ccc(-c2cnc3ncc(Cc4ccc5ncccc5c4)n3n2)cc1F | 91.5 | 8.54 |
| Cc1cc(C)nc(NS(=O)(=O)c2ccc(Nc3c4ccccc4nc4c(C(=O)N5CCN(CCOS(C)(=O)=O)CC5)ccc(Cl)c34)cc2)n1 | > 100 |  |
| Clc1cc(Cl)c2c(Cl)cc(Cl)c3c2c1N=S=N3 | > 100 |  |
| CN1CCN(C)C1c1cccc(C2N(C)CCN2C)c1 | > 100 |  |
| CC(=O)OCCOCBr | > 100 |  |
| CC(O)CN1C(=O)NC(Cc2ccccc2)C1=O (configuration not stated) | > 100 |  |
| O=C(c1ccccc1)[C@H]1Nc2cnccc2C2c3ccccc3CC21 (some centres not stated) | 37.4 |  |
| COc1ccc(C(=O)C(C(=O)CCC(=O)Nc2cccc(C(F)(F)F)c2)c2ccccc2)cc1 (configuration not stated) | > 100 |  |
| NC1=NC(=O)C(CC(=O)Nc2ccc([N+](=O)[O-])cc2[N+](=O)[O-])S1 (configuration not stated) | 89.4 |  |
| O=C1c2ccccc2-c2cccc3ccc(Cc4ccccc4)c1c23 | > 100 |  |
| COC(=O)/C(=N\NC(=S)NN)C(C(=O)C(=O)Nc1ccccc1C(N)=O)c1nc2ccccc2[nH]c1=O (configuration not stated) | > 100 |  |
| CC/C=C\C/C=C\C1CC(=O)NCCCNCCCCN1 (configuration not stated) | > 100 |  |
| CC1CCCC(C(=O)/C(=C/c2cccc(Cl)c2)C(=O)C(=O)O)C1 (configuration not stated) | > 100 |  |
| NC(CCSCC(F)F)C(=O)O (configuration not stated) | > 100 |  |
| COC(=O)NC/C=C\c1nc(CC/C=C\C(=O)OC2CC3CC(=O)O[C@@H](/C=C/CC(C)C)C[C@@H]4CCC(C)C(C[C@@H](OC)CC(C2)O3)O4)co1 (some centres not stated) | 2.38 | < 0.01 |
| CCOC(=O)[C@@H](C)C[C@H](Cc1ccccc1)NC(=O)c1csc([C@@H](C[C@H](C(C)C)N(C)C(=O)[C@@H](NC(=O)[C@H]2CCCCN2C)C(C)(C)C)OC(C)=O)n1 | 1.44 | < 0.00167 |

system: OVCAR-3 ovarian; assay: NCI tumour cell line growth inhibition, 48 h

| Compound | TGI [µM] |
| --- | --- |
| CN(C)C(=S)/N=c1\ss/c(=N\S(=O)(=O)c2ccccc2)n1-c1ccccc1 | > 100 |
| N#Cc1c(N)c(C(=O)O)nn(-c2cccc(C(F)(F)F)c2)c1=O | > 100 |
| CCOC(=O)Cc1nc(/C(C#N)=C/c2ccco2)[nH]c(=O)c1C#N | > 100 |
